What all share (conditions): pH 7.5
Assay [1] has as its target Serine/threonine-protein kinase PAK 4 (Homo sapiens, UniProt O96013). The experiment in a line: In Vitro Activity Assay. The text has this:
(§1) In vitro activity assay using various kinases.

In assay [2] the target is Dual specificity protein kinase CLK1 (Homo sapiens, UniProt P49759). The assay is described as follows: In Vitro Activity Assay.
Description: as §1

Assay [3] concerns the target Mitogen-activated protein kinase 14 (Homo sapiens, UniProt Q16539). The assay is described as follows: In Vitro Activity Assay.
Description: as §1

The target in assay [4] is cAMP-dependent protein kinase catalytic subunit alpha (Homo sapiens, UniProt P17612). The assay is described as follows: In Vitro Activity Assay.
Description: as §1

Assay [5] deals with Tyrosine-protein kinase CSK (Homo sapiens, UniProt P41240). The assay is described as follows: In Vitro Activity Assay.
Description: as §1

Assay [6] has as its target T1, Interleukin-1 receptor-associated kinase 4 (Homo sapiens, UniProt Q9NWZ3).
T1 sequence (Q9NWZ3 whole entry): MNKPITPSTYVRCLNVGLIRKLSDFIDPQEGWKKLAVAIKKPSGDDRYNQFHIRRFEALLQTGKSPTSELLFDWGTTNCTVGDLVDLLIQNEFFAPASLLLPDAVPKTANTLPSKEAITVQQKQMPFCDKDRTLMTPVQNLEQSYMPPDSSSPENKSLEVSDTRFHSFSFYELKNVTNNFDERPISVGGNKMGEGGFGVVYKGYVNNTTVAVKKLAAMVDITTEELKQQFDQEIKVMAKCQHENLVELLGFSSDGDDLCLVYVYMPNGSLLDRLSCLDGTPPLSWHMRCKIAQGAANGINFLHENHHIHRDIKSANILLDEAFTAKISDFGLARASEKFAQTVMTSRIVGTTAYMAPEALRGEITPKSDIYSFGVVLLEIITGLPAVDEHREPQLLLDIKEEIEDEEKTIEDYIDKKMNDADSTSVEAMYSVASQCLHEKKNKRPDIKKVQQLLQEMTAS
The assay is described as follows: In Vitro Activity Assay.
Description: as §1

For assay [7], the target named is Mitogen-activated protein kinase 1 (Homo sapiens, UniProt P28482). The experiment in a line: In Vitro Activity Assay.
Description: as §1

Assay [8] has as its target T2, Mitogen-activated protein kinase kinase kinase 5 (Homo sapiens, UniProt Q99683).
T2 sequence (Q99683 whole entry): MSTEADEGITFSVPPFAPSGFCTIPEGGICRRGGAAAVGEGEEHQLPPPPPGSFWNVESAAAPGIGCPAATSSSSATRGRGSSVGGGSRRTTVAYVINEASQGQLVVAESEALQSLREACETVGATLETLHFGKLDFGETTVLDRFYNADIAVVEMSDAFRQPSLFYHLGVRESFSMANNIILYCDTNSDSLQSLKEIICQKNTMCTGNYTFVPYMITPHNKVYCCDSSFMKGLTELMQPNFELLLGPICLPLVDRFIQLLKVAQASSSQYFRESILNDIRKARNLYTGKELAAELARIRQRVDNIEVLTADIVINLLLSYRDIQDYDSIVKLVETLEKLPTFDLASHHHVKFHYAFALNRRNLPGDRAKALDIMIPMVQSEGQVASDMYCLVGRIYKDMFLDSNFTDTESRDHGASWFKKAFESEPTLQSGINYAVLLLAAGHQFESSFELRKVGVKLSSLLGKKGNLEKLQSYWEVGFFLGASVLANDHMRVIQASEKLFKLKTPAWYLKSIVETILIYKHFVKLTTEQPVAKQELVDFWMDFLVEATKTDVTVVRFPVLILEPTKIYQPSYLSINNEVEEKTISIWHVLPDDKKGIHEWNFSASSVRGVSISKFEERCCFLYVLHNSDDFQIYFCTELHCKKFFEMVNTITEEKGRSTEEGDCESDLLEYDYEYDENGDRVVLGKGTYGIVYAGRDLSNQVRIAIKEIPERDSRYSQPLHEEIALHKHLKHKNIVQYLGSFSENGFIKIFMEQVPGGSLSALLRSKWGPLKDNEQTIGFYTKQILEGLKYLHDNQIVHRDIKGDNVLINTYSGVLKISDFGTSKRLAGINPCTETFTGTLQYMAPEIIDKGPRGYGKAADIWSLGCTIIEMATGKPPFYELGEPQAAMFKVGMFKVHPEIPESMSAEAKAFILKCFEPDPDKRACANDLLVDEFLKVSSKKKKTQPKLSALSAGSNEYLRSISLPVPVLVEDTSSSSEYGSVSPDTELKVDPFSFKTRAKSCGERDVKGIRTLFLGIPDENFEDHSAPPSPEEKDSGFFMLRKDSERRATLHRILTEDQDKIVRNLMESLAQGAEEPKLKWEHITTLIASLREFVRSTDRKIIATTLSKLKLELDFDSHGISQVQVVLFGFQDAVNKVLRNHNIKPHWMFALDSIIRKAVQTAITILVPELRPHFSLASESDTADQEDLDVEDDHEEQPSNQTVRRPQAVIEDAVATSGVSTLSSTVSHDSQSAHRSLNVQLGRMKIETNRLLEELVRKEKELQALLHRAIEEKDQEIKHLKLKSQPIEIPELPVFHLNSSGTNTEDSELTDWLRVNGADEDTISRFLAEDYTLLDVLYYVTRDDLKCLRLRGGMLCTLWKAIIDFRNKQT
The assay is described as follows: In Vitro Activity Assay.
Description: as §1

Assay [9] has as its target Tyrosine-protein kinase Lck (Homo sapiens, UniProt P06239). The experiment in a line: In Vitro Activity Assay.
Description: as §1

Assay [10] deals with Tyrosine-protein kinase ABL1 (Homo sapiens, UniProt P00519). The experiment in a line: In Vitro Activity Assay.
Description: as §1

Assay [11] addresses Tyrosine-protein kinase HCK (Homo sapiens, UniProt P08631). The assay is described as follows: In Vitro Activity Assay.
Description: as §1

Assay [12] deals with Proto-oncogene tyrosine-protein kinase Src (Gallus gallus, UniProt P00523). The assay is described as follows: In Vitro Activity Assay.
Description: as §1

Assay [13] deals with Serine/threonine-protein kinase PAK 5 (Homo sapiens) (UniProt Q9P286). The assay is described as follows: In vitro activity assay using various kinases.
Assay [14] concerns the target T3, Tyrosine-protein kinase ABL1 [1-999,Y253H] (Homo sapiens, UniProt P00519, Y253H).
T3 construct: 1-999
The assay is described as follows: In Vitro Activity Assay.
Description: as §1

Assay [15] deals with T4, Tyrosine-protein kinase ABL1 [1-999,E255V] (Homo sapiens, UniProt P00519, E255V).
T4 construct: 1-999
The experiment in a line: In Vitro Activity Assay.
Description: as §1

Assay [16] concerns the target T5, Ephrin type-A receptor 3 [1-975] (Homo sapiens, UniProt P29320).
T5 construct: 1-975
T5 sequence (P29320 whole entry): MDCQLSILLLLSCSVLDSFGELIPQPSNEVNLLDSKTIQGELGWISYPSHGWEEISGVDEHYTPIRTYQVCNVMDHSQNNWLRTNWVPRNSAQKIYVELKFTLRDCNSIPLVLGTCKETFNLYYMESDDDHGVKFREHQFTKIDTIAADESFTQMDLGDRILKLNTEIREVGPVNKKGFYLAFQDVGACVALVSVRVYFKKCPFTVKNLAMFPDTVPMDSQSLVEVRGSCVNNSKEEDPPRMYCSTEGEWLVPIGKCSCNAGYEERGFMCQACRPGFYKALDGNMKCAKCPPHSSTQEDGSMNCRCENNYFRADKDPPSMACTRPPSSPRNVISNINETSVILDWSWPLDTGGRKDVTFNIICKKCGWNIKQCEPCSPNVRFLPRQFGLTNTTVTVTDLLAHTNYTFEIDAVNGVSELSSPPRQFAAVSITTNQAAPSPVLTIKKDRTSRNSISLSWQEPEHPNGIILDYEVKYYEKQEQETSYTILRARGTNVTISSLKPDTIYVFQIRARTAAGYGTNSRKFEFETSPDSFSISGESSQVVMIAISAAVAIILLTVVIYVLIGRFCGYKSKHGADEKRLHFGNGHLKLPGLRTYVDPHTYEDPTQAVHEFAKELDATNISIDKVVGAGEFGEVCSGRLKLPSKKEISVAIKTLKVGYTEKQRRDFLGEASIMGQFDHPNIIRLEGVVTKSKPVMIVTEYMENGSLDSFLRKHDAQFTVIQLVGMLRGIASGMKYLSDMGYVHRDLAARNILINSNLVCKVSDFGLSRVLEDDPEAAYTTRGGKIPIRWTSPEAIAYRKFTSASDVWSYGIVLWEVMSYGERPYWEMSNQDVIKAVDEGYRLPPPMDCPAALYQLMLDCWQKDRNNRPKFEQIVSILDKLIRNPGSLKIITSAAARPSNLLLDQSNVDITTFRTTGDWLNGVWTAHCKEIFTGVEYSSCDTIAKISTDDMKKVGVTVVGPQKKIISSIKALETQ
The experiment in a line: In Vitro Activity Assay.
Description: as §1

pIC50, pKd: −log10 of the molar value. Where “and” joins values, the source holds several entries; their conditions need not be identical. Equal entries are not always repeated. Bounds are passed on as bounds.

Sequence of Mitogen-activated protein kinase 14 (Q16539 whole entry): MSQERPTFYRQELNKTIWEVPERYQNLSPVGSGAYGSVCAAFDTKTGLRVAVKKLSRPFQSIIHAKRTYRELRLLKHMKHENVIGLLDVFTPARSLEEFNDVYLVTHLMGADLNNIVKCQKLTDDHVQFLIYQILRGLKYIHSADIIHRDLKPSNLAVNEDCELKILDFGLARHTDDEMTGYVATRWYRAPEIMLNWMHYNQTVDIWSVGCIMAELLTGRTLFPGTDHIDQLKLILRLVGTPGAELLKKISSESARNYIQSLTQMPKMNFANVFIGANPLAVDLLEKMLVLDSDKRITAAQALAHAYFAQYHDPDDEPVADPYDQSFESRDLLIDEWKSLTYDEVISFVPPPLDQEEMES
Sequence of Serine/threonine-protein kinase PAK 5 (Homo sapiens) (Q9P286 whole entry, looked up): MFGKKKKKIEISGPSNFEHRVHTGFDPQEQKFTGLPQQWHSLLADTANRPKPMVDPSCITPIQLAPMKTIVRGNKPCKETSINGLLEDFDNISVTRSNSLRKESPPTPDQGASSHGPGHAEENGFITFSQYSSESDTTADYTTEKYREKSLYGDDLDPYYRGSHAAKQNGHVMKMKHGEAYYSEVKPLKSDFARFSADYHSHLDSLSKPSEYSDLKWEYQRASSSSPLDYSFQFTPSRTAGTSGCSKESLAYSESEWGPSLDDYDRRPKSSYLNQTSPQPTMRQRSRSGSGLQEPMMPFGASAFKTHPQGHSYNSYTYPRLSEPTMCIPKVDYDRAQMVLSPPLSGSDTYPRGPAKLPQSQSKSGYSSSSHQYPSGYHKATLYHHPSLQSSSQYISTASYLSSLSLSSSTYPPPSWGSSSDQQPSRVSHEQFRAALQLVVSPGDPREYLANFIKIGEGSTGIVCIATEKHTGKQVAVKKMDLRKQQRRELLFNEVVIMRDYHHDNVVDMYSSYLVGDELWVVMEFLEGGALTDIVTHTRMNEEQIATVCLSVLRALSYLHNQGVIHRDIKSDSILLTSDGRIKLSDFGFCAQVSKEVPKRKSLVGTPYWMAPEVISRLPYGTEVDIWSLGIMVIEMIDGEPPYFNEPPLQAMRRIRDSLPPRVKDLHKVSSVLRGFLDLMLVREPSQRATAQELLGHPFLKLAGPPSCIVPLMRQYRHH
Sequence of Tyrosine-protein kinase HCK (P08631 whole entry): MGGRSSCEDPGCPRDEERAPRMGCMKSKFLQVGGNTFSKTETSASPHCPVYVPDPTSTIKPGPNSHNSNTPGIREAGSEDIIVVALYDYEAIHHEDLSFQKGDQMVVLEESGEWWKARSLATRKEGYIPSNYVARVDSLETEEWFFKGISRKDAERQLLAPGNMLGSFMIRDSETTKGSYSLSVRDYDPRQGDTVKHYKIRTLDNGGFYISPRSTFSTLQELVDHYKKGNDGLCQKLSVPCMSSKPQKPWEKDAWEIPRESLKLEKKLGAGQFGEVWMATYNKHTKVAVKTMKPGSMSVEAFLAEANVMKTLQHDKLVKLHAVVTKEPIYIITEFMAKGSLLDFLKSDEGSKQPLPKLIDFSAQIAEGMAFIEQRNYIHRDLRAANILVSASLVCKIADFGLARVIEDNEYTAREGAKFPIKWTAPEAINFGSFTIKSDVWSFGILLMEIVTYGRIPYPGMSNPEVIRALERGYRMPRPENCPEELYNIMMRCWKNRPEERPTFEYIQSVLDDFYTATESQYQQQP
Sequence of Tyrosine-protein kinase ABL1 (P00519 whole entry): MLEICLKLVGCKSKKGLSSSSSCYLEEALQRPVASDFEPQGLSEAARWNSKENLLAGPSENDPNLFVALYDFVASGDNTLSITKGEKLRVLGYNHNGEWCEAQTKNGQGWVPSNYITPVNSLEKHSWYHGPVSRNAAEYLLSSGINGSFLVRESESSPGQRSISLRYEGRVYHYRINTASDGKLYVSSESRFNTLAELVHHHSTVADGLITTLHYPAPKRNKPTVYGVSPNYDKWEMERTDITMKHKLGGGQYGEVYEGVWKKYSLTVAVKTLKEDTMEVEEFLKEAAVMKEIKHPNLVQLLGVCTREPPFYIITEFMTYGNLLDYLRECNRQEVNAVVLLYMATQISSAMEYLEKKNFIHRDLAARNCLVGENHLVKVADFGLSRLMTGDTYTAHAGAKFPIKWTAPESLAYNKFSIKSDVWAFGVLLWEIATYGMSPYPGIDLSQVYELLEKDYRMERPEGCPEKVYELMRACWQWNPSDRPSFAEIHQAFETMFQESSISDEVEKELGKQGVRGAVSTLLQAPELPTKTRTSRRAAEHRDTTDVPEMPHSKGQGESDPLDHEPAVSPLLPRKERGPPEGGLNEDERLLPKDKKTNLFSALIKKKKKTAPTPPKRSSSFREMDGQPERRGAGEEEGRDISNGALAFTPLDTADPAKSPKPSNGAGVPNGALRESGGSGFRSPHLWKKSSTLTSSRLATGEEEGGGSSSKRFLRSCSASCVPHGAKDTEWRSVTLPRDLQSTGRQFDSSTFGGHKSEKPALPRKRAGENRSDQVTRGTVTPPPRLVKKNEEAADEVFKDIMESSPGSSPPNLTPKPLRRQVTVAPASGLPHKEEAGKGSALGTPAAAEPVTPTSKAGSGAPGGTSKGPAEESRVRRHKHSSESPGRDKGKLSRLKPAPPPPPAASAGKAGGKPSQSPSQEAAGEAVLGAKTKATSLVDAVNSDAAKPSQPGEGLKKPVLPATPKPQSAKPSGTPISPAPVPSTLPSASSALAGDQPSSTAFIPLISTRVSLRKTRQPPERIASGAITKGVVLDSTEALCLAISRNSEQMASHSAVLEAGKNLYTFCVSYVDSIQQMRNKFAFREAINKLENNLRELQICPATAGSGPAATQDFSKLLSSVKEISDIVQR
Sequence of Serine/threonine-protein kinase PAK 4 (O96013 whole entry): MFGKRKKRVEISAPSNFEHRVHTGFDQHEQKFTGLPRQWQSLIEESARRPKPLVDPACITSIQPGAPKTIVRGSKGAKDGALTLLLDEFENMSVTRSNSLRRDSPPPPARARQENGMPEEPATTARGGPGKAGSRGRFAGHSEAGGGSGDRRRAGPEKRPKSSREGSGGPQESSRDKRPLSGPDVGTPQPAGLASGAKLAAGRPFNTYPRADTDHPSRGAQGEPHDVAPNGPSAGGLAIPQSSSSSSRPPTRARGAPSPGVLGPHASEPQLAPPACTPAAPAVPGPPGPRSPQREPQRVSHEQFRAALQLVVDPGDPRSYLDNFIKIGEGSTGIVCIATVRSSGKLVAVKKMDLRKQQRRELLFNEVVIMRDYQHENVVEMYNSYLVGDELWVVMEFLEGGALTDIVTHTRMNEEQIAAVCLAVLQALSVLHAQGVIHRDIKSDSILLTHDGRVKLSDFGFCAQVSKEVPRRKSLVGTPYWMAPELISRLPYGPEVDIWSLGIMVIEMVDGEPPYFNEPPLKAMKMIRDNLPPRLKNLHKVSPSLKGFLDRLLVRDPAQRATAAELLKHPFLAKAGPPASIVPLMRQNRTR
Sequence of Dual specificity protein kinase CLK1 (P49759 whole entry): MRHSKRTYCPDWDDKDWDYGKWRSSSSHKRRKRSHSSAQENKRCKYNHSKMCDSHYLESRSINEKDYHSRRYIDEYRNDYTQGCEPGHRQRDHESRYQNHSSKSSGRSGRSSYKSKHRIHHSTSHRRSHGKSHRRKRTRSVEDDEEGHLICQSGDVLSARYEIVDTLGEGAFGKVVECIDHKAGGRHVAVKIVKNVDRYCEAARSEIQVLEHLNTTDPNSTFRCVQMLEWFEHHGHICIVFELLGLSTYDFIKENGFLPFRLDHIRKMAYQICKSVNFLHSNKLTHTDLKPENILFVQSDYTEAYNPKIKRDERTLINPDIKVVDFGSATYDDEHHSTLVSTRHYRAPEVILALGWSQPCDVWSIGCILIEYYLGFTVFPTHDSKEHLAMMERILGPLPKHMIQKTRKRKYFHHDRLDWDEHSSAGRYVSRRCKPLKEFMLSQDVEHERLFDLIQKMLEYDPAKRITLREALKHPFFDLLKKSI
Sequence of Tyrosine-protein kinase CSK (P41240 whole entry): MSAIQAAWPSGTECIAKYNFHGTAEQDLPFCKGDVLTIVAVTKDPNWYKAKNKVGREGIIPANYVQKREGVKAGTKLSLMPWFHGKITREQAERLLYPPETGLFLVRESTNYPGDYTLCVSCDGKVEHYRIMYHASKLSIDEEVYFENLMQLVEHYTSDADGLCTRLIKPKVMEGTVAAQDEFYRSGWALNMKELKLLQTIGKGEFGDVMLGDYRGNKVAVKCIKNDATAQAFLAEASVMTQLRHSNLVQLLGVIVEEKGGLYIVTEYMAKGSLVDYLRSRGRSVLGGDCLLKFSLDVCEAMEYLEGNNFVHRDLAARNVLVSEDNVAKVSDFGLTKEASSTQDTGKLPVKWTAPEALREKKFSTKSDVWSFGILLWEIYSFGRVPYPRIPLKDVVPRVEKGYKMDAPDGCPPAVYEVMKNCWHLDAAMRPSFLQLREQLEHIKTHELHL
Sequence of Tyrosine-protein kinase Lck (P06239 whole entry): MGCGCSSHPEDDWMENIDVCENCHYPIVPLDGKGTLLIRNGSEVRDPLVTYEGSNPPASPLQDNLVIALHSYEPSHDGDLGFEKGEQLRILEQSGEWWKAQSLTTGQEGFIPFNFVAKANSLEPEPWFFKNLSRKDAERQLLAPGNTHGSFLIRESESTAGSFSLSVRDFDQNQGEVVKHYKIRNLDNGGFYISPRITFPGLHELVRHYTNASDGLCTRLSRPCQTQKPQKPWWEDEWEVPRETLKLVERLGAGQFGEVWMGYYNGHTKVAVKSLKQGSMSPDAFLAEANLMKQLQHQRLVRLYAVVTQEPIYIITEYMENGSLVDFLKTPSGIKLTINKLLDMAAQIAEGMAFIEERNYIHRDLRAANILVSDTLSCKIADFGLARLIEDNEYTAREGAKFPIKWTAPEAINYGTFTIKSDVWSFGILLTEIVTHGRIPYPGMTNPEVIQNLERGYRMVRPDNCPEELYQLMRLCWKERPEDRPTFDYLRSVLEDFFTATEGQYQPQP

As to `Cc1ccc(NC(=O)c2cccc(C(F)(F)F)c2)cc1Nc1ncccc1-c1ncnc(Nc2ccc(OCCNC(=O)COCCOCCOCCOCCN)cc2)n1` [Amine compound, 12a], the pIC50 in assay [1] is < 5.00; in assay [2], < 5.00; in assay [3] it was > 7.89; in assay [4] it was < 5.00; in assay [5], 7.79; in [6] it was < 5.00. The pIC50 in [7] is < 5.00; in [8], < 5.00; in assay [9], > 8.00; in assay [10], 8.18; in assay [11], 8.02; in assay [12], 8.48. Further, in assay [13], the pIC50 was < 5.00.

On to `Cc1ccc(NC(=O)c2cccc(C(F)(F)F)c2)cc1Nc1ncccc1-c1cc(Nc2ccc(OCCNC(=O)COCCOCCOCCOCCN)cc2)ncn1` [Amine compound, 13a], for which the pIC50 in assay [1] is < 5.00; in assay [2], < 5.00; in assay [3] it was > 7.89; in assay [4], < 5.00; in [5], 6.85; in [6] it was < 5.00. Moreover, the negative-log IC50 (pIC50) in assay [7] was < 5.00; in assay [8] it was < 5.00; in [9] it was > 8.00; in [10], 8.18; in [11], 8.20; in assay [12], 8.24. Besides, the pIC50 in [13] was < 5.00.

Consider `Cc1ccc(NC(=O)c2cccc(C(F)(F)F)c2)cc1Nc1ncccc1-c1ncnc(Nc2ccc(OCCNC(=O)CCCCNC(=O)CCC3=[N+]4B(F)n5c(C)cc(C)c5C=C4C=C3)cc2)n1` [BODIPY-labeled probe, 4a], for which the pKd is < 6.00 in assay [1]; 8.03 in assay [14]; < 6.00 in [2]; 7.46 in assay [3]; 7.35 in [15]; 7.57 in assay [16]. In addition, the pKd in [5] is 7.77; in [8], < 6.00; in [9], 7.70; in [10], 8.00; in assay [11], 8.06; in assay [12], 7.89 and 7.96. Moreover, the pKd in assay [13] is < 6.00. For the same compound, the pIC50 was 7.59 in assay [3] and 7.60 in assay [12].

Usually pIC50 stands for the negative decadic logarithm of the IC50, by convention in mol/L. One may read the pKd as −log10 of the Kd, conventionally taken in molar units.

Values taken from BindingDB's records for doi:10.1016/j.chembiol.2010.01.008 (University of Washington, 2010).
